Test results published in US20040013717A1, “PEG-lipid containing formulations” (priority 2001, published 2004).

Test: Stability of cryodesiccated composition
Assay type: physicochemical
Settings: room temperature
Description: Once formulated, the micelles of the invention may be freeze-dried or lyophilized for long-term storage if desired. […] If the composition is freeze-dried, it may be packed in vials for subsequent reconstitution with a suitable aqueous solution, such as sterile water or sterile water containing a saccharide and/or other suitable excipients, just prior to use. For example, reconstitution may be by simply adding water for injection just prior to administration.

For “benzoporphyrin derivative monoacid ring A [verteporfin]”, the “period over which potency was maintained” value was “at least nine months”.
